Measurements from ChEMBL document CHEMBL4325862, “Identification of novel quinazoline derivatives as potent antiplasmodial agents” (Eur J Med Chem, 2019).
pEC50, pIC50: −log10 of the molar value.

Tests used:
Plasmodium falciparum [1] = experiment: Antiplasmodial activity against asynchronous form of Plasmodium falciparum 3D7 infected in human erythrocytes assessed as parasite growth inhibition after 48 hrs by SYBR green1 staining based flow cytometry; assay type: functional, organism-based; details: 3D7, 48 h
Plasmodium falciparum [2] = experiment: Antiplasmodial activity against asynchronous form of Plasmodium falciparum 3D7 infected in human erythrocytes assessed as parasite growth inhibition at 10 uM after 48 hrs by SYBR green1 staining based flow cytometry relative to control; assay type: functional; details: 3D7, 48 h
[3] = molecular target: DNA (cytosine-5)-methyltransferase 3A (Homo sapiens, UniProt Q9Y6K1); experiment: Inhibition of recombinant human DNMT3a C-terminal catalytic domain (623 to 908 residues) using 5'-biotinylated/3'-FAM-oligonucleotide as substrate measured after 1 hr in presence of Adomet by fluorescence assay
DNA (cytosine-5)-methyltransferase 3A, sequence (Q9Y6K1 whole entry, looked up, the tested form may be a part): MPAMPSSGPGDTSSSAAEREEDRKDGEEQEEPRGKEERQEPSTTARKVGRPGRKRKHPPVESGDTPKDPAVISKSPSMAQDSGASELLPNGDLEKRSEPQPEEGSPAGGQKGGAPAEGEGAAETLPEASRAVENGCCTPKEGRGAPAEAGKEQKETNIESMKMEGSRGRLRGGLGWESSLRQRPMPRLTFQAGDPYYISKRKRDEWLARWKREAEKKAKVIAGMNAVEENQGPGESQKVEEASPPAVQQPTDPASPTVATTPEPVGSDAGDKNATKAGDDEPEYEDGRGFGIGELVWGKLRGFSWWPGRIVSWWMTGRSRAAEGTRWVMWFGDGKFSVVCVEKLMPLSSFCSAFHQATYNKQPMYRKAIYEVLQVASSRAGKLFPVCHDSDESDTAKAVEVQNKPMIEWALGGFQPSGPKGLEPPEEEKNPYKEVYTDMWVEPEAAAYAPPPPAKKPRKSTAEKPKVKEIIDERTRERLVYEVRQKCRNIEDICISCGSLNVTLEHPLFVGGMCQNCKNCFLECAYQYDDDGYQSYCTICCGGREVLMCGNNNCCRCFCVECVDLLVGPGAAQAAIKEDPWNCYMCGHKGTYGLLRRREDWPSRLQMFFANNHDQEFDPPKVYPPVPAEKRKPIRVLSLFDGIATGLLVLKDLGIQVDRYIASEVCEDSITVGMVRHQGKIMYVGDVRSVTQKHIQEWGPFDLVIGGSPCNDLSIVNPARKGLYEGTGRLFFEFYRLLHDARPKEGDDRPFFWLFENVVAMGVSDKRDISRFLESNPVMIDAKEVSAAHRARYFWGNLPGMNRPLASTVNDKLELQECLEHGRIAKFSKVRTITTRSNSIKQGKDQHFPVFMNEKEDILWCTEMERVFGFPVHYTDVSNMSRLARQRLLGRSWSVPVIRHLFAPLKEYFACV

[4] = molecular target: DNA (cytosine-5)-methyltransferase 1 (Homo sapiens, UniProt P26358); experiment: Inhibition of recombinant human DNMT1 using biotinylated DNA duplex as substrate measured after 2 hrs in presence of Adomet/[methyl-3H]Adomet by topcount method
DNA (cytosine-5)-methyltransferase 1, sequence (P26358 whole entry): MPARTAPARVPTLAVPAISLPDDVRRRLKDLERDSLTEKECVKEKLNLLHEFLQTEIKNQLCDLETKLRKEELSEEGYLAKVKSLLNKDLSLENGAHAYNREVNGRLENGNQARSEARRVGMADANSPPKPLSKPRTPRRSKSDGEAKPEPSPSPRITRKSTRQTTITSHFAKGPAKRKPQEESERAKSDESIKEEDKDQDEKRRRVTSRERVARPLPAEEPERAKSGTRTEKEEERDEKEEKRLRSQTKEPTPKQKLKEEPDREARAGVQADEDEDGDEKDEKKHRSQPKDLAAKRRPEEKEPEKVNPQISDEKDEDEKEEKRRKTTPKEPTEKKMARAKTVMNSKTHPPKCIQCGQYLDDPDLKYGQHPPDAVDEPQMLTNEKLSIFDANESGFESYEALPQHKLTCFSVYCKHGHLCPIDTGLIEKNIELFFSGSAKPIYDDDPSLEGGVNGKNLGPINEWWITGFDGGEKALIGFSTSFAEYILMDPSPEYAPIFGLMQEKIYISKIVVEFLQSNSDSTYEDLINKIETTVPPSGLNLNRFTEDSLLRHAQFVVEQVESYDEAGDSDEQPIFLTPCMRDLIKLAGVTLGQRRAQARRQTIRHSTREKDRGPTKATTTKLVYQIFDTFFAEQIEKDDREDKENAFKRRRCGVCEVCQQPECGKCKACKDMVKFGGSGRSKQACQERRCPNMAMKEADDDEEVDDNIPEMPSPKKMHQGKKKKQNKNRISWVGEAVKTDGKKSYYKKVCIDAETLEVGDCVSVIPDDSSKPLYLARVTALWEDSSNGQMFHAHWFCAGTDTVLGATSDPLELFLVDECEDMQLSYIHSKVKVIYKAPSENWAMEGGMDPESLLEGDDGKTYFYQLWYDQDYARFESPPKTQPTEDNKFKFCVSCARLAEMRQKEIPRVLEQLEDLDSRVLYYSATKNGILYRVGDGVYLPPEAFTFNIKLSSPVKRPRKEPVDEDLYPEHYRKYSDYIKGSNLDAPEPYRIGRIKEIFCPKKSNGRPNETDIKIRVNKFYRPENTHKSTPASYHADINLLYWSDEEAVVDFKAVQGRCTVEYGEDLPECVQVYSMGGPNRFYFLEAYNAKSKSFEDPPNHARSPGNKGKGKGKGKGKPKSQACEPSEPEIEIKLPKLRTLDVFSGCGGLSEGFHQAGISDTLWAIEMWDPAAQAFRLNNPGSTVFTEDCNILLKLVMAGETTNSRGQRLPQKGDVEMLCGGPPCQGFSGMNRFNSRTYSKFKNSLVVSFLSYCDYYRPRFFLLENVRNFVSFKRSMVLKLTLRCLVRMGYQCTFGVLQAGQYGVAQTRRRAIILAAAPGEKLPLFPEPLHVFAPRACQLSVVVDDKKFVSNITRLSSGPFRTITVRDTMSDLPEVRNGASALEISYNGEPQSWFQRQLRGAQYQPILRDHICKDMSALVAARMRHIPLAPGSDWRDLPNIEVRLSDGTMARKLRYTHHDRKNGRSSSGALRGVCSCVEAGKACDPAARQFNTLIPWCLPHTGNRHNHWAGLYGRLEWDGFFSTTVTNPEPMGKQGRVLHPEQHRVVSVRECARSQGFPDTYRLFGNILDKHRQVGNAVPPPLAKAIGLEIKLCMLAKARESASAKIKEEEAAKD

HFF = experiment: Cytotoxicity against HFF; assay type: cell-based; details: Homo sapiens
[5] = Cytotoxicity against mouse spleen cells; assay type: cell-based
Plasmodium falciparum [6] = experiment: Antiplasmodial activity against asynchronous form of Plasmodium falciparum W2 infected in human erythrocytes assessed as parasite growth inhibition after 48 hrs by SYBR green1 staining based flow cytometry; assay type: functional, organism-based; details: W2, 48 h
Plasmodium falciparum [7] = experiment: Antiplasmodial activity against Plasmodium falciparum Dd2 infected in human erythrocytes assessed as reduction in [3H]-hypoxanthine incorporation measured after 48 hrs by microbeta liquid scintillation counting method; assay type: functional, organism-based
[8] = Selectivity index, ratio of IC50 for mouse spleen cells to IC50 for asynchronous form of Plasmodium falciparum 3D7 infected in human erythrocytes; assay type: toxicity, cell-based; details: read-out: Ratio IC50
Histone deacetylase 1 = Histone deacetylase 1 (Homo sapiens, UniProt Q13547); experiment: Inhibition of recombinant human HDAC1 using RHK-K(Ac) as substrate by homogeneous fluorescence release assay
Histone deacetylase 1, sequence (Q13547 whole entry): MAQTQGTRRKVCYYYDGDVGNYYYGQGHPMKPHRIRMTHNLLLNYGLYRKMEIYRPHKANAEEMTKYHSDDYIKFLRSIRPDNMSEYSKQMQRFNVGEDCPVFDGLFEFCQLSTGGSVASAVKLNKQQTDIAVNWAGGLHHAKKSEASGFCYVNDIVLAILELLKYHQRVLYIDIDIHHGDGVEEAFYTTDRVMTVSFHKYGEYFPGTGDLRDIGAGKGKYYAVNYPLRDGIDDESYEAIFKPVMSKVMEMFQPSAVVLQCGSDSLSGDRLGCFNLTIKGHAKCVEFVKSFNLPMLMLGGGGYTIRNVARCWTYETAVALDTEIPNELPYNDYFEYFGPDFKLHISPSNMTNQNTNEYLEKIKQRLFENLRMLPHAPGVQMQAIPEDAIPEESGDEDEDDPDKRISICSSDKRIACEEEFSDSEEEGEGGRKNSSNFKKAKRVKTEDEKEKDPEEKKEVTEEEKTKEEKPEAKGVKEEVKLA

[9] = molecular target: T1, Protein deacetylase HDAC6 (Homo sapiens, UniProt Q9UBN7); experiment: Inhibition of recombinant human HDAC6 using RHK-K(Ac) as substrate by homogeneous fluorescence release assay
T1 sequence (Q9UBN7 whole entry): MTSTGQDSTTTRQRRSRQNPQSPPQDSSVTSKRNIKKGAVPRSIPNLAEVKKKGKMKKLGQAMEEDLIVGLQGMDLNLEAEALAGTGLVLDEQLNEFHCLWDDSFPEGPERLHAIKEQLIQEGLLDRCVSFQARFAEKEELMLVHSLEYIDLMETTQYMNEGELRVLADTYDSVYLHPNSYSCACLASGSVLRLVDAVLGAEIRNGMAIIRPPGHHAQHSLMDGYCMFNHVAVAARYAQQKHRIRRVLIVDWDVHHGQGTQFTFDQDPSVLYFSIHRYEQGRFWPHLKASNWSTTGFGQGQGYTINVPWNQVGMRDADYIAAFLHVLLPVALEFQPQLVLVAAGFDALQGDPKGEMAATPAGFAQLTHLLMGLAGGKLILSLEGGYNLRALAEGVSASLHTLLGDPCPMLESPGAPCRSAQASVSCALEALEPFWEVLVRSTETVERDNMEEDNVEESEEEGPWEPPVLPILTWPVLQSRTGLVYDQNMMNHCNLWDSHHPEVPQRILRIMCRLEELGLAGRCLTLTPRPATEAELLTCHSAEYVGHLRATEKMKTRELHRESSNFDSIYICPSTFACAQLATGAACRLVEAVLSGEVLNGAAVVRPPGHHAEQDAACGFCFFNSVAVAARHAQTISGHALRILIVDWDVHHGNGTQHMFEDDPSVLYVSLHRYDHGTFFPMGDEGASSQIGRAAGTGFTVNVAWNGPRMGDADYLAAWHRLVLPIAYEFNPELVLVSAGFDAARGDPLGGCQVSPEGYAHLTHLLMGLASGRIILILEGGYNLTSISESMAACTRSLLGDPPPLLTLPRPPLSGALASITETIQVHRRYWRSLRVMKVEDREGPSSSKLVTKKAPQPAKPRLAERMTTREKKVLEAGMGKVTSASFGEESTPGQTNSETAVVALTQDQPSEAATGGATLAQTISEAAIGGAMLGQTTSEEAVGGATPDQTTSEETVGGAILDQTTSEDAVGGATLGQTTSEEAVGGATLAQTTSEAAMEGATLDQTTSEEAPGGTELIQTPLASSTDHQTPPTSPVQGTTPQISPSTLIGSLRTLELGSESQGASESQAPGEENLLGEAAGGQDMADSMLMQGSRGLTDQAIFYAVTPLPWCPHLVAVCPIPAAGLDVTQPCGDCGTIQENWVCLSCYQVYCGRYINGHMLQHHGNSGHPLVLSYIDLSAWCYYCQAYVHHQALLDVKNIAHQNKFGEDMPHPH

Histone deacetylase 4 = Histone deacetylase 4 (Homo sapiens, UniProt P56524); experiment: Inhibition of recombinant human HDAC4 using Boc-Lys(trifluoroacetyl)-AMC as substrate by homogeneous fluorescence release assay
Histone deacetylase 4, sequence (P56524 whole entry): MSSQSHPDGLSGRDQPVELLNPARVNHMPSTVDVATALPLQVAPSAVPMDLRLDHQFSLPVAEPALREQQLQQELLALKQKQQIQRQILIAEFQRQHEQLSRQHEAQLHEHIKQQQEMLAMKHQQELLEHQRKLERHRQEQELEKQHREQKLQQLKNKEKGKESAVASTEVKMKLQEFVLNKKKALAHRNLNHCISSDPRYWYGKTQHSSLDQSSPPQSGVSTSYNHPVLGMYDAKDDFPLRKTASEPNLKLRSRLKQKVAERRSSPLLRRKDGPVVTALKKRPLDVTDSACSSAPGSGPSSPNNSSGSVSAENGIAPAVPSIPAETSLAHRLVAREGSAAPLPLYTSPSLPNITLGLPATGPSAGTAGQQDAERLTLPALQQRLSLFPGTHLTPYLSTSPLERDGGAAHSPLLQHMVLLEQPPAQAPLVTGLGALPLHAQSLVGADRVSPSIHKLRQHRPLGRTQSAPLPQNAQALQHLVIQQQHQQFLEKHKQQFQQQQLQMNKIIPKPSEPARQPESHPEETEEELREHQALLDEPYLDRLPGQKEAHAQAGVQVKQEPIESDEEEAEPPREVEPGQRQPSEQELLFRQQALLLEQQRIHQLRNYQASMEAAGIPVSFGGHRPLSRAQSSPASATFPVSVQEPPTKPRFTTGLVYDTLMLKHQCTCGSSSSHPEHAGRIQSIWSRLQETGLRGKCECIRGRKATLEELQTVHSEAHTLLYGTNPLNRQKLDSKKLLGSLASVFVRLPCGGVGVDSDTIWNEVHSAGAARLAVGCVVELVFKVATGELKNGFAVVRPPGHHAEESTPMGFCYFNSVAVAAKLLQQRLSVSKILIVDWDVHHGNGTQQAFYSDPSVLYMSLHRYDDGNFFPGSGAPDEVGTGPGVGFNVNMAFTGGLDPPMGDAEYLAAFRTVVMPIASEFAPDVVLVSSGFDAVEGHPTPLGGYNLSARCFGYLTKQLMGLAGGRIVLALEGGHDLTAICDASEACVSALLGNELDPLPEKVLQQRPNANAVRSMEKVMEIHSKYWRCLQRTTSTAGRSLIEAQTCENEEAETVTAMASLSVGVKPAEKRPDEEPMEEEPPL

Row | Compound | pIC50 (Plasmodium falciparum [1]) | inhibition at 10 µM (Plasmodium falciparum [2]) | other results
1 | CC1=C(/C=C/C(C)=C/C=C/C(C)=C/C(=O)Nc2ccccc2N)C(C)(C)CCC1 | < 6.00 | 97.1% | –
2 | CCOC(=O)c1c(C)nc2ccccc2c1O | < 6.00 | 60.1% | –
3 | c1ccc(CCN2CCC(Nc3nc(N4CCN(c5ccccc5)CC4)nc4ccccc34)CC2)cc1 | 7.00 | 100% | pEC50 [3]: 5.27; pEC50 [4]: < 4.00
4 | NC1CC1c1ccc(NC(=O)CCCCCNC(=O)c2ccc(O)c3ncccc23)cc1 (stereo unspecified) | < 6.00 | 96.7% | –
5 | O=C(CCCCSc1nc(-c2ccc(Cl)cc2)cc(=O)[nH]1)NO | 7.05 | 98% | –
6 | CC1=NN(c2ccc(C(=O)O)cc2)C(=O)/C1=C\c1ccc(-c2cc(C)c(C)cc2[N+](=O)[O-])o1 | – | 12.8% | –
7 | NC1CC1c1ccc(NC(=O)CCCCNC(=O)c2ccc(O)c3ncccc23)cc1 (stereo unspecified) | < 6.00 | 97.8% | –
8 | COc1ccc2nc(N3CCN(c4ccccc4)CC3)nc(NC3CCN(Cc4ccccc4)CC3)c2c1 | 7.28 | 100% | pEC50 [3]: 5.27; pEC50 [4]: < 4.00
9 | c1ccc(N2CCN(c3nc(NC4CCN(Cc5ccc6ccccc6c5)CC4)c4ccccc4n3)CC2)cc1 | 6.86 | 100% | pEC50 [3]: 5.62; pEC50 [4]: < 4.00
10 | COc1cc2nc(N3CCCN(C)CC3)nc(NC3CCN(Cc4ccccc4)CC3)c2cc1OC | 7.63 to 7.68 | 100% | pIC50 (HFF): 5.30; pIC50 [5]: 6.26; pIC50 (Plasmodium falciparum [6]): 7.78; pIC50 (Plasmodium falciparum [7]): 8.01; selectivity ratio [8]: 23
11 | O=S(=O)(c1cccc(C(F)(F)F)c1)N1c2ccccc2-n2cccc2C1c1cccnc1 (stereo unspecified) | 6.17 | 99.5% | –
12 | O=c1nc2oc3ccc4ccccc4c3cc-2c(=O)n1-c1ccccc1 | < 6.00 | 80.5% | –
13 | BrCCCc1nc(-c2ccc(Br)cc2)no1 | – | 18.7% | –
14 | c1ccc(CN2CCC(Nc3nc(N4CCN(c5ccccc5)CC4)nc4ccccc34)CC2)cc1 | 6.49 | 100% | –
15 | O=C(O)c1ccc(O)c2ncccc12 | – | 25.4% | –
16 | O=c1[nH]c(SCCN2CCN(c3ccccn3)CC2)nc2ccccc12 | – | 2% | –
17 | O=C(/C=C/c1ccc(Cc2nnc(Cc3cccc4ccccc34)o2)cc1)NO | 6.61 | 98% | –
18 | CC(C)N(CCCNC(=O)Nc1ccc(C(C)(C)C)cc1)C[C@H]1O[C@@H](n2cnc3c(N)ncnc32)[C@H](O)[C@@H]1O | – | 9.7% | –
19 | COc1cc2c(NC3CCN(C(C)C)CC3)nc(C3CCCCC3)nc2cc1OCCCN1CCCC1 | 7.16 to 7.17 | 100% | pIC50 (HFF): 5.64; pIC50 [5]: 5.84; pIC50 (Plasmodium falciparum [6]): 7.41; pIC50 (Plasmodium falciparum [7]): 7.77; selectivity ratio [8]: 21
20 | O=C(Cc1cccc2ccccc12)Nc1ccc(C(=O)NO)nc1 | < 6.00 | 97.9% | pIC50 (Histone deacetylase 1): 6.52; pIC50 [9]: 7.59; pIC50 (Histone deacetylase 4): < 4.30
21 | CC(C(=O)Nc1cccc(/N=C/c2c(O)ccc3ccccc23)c1)c1ccccc1 (stereo unspecified) [SALERMIDE] | < 6.00 | 72.3% | –

Row | Compound | pIC50 (Plasmodium falciparum [1]) | inhibition at 10 µM (Plasmodium falciparum [2]) | other results
22 | COc1ccc2c(NC3CCN(Cc4ccccc4)CC3)nc(N3CCN(c4ccccc4)CC3)nc2c1 | 7.08 | 100% | pEC50 [3]: 5.34; pEC50 [4]: < 4.00
23 | NC1CC1c1ccc(NC(=O)CCCNC(=O)c2ccc(O)c3ncccc23)cc1 (stereo unspecified) | – | 45.3% | –
24 | O=C(Cc1ccccc1)Nc1ccc(C(=O)NO)nc1 | < 6.00 | 97.8% | pIC50 (Histone deacetylase 1): 6.70; pIC50 [9]: 7.43; pIC50 (Histone deacetylase 4): 4.96
25 | c1ccc(CCCN2CCC(Nc3nc(N4CCN(c5ccccc5)CC4)nc4ccccc34)CC2)cc1 | 7.12 | 100% | pEC50 [3]: 5.29; pEC50 [4]: < 4.00
26 | CCCCCCCCCCCCCCC=C(C(=O)OCC)C(=O)OCC | < 6.00 | 92.7% | –
27 | NC1CC1c1ccc(NC(=O)c2ccc(O)c3ncccc23)cc1 (stereo unspecified) | 6.00 to 6.11 | 98.9 to 100% | –
28 | O=C(CCCCSc1nc(-c2ccc3ccccc3c2)cc(=O)[nH]1)NO | 7.60 | 97.9% | pIC50 (Histone deacetylase 1): 5.77; pIC50 [9]: 7.92; pIC50 (Histone deacetylase 4): < 4.30
29 | O=C1/C(=C/c2ccc(O)c(Br)c2)CN(Cc2ccccc2)C/C1=C\c1ccc(O)c(Br)c1 | < 6.00 | 100% | –
30 | COc1cc2nc(N3CCN(c4ccccc4)CC3)nc(NC3CCN(Cc4ccccc4)CC3)c2cc1OC | 7.42 | 100% | pEC50 [3]: 5.27; pEC50 [4]: < 4.00
31 | O=C(/C=C/c1ccccc1CSc1nc(O)cc(-c2ccccc2)n1)NO | – | 2.8% | –
32 | O=C(CCCCCSc1nc(-c2ccc(-c3ccccc3)cc2)cc(=O)[nH]1)NO | 7.29 | 97.4% | pIC50 (Histone deacetylase 1): 7.00; pIC50 [9]: 8.05; pIC50 (Histone deacetylase 4): < 4.30
33 | O=C(/C=C/c1ccc(NC(=O)Cc2cccc3ccccc23)cn1)NO | 7.68 to 7.99 | 96.8 to 97.9% | pIC50 (HFF): < 5.00; pIC50 [5]: 6.92; pIC50 (Plasmodium falciparum [6]): 7.82; pIC50 (Plasmodium falciparum [7]): 7.87; selectivity ratio [8]: 9; pIC50 (Histone deacetylase 1): 7.00; pIC50 [9]: 7.82; pIC50 (Histone deacetylase 4): 5.57
34 | Nc1ccccc1NC(=O)c1ccc(CNC(=O)OCc2cccnc2)cc1 [ENTINOSTAT] | < 6.00 | 50.9% | –
35 | O=C1/C(=C/c2ccc(O)c(Br)c2)CSC/C1=C\c1ccc(O)c(Br)c1 | 6.02 | 99.5% | –
36 | Cc1cc(C)c(CNC(=O)c2cnn(-c3ccccc3)c2C)c(=O)[nH]1 | – | 14.7% | –
37 | CC(C)(C)OC(=O)Nc1cccc(C(=O)/C=C/c2ccc(/C=C/C(=O)NO)cc2)c1 | 6.37 | 100% | –
38 | O=C(CCCCCSc1nc(-c2ccc3ccccc3c2)cc(=O)[nH]1)NO | 7.10 | 97.4% | pIC50 (Histone deacetylase 1): 6.00; pIC50 [9]: 7.77; pIC50 (Histone deacetylase 4): < 4.30
39 | NC1CC1c1ccc(NC(=O)[C@H](Cc2ccccc2)NC(=O)OCc2ccccc2)cc1 (stereo partly specified) | < 6.00 | 64.6% | –
40 | NC1CC1c1ccc(NC(=O)c2ccc(-c3ccccc3)cc2)cc1 (stereo unspecified) | < 6.00 | 97.5% | –
41 | CCOC(=O)C1=CN(Cc2ccccc2)C=C(C(=O)OCC)C1c1ccccc1 | < 6.00 | 97.2% | –
42 | Cn1c(/C=C/C(=O)NO)ccc1/C=C/C(=O)c1cccc(Cl)c1 | < 6.00 | 89.6% | –
